Data on two compounds can be found in article PMC5831633 (PLoS ONE, 2018).

Structures are written as SMILES. Counter-ions that a name gives are not always drawn.

The subject of test [1] is N1 and N2 sialidases. To be noted: cited from earlier work.
The target in test [2] is N2 neuraminidase (A/Chicken/HongKong/G9/1997 H9N2) (Influenza A virus, UniProt Q80H78). Type of test: biochemical. The note with it: pH 6.5; read-out: Km for the MUNANA substrate.
Test [3] has as its target N1 wild-type neuraminidase (A/Anhui/1/2005 H5N1) (Influenza A virus, UniProt A0A0C5AGB3). The test is classed as biochemical. The note with it: pH 6.5; read-out: Km for the MUNANA substrate.

The term IC50 denotes the concentration that gives 50% inhibition. Turning to `CCC(CC)OC1C(NC(C)=O)C(NCc2ccc(-c3ccccc3)cc2)C2C(C(=O)O)C12` (stereo not drawn) [Compound 4a], the IC50 in test [1] is 10 µM. What is called Km is the substrate concentration at which the rate is half of its maximum. Consider `CC(=O)N[C@H]1[C@H]([C@H](O)[C@H](O)CO)OC(Oc2ccc3c(C)cc(=O)oc3c2)(C(=O)O)C[C@@H]1O` (stereo partly drawn) [MUNANA, 2-(4-methylumbelliferyl) α-D-acetylneuraminic acid sodium salt hydrate], for which the Km in test [2] was found to be 70 ± 6.8 µM; in test [3], 12.8 ± 1.9 µM.
